In ChEMBL document CHEMBL5331108, “Design and Synthesis of 4-Fluorophenyl-5-methylene-2(5H)-furanone Derivatives as Potent Quorum Sensing Inhibitors” (J Med Chem, 2023):
≈ marks a conversion by molar mass, not a printed value. Calls of active or inactive are those of the source. The rule behind the calls is not given here.

Tests used:
Staphylococcus aureus [1] = experiment: Antibacterial activity against methicillin-resistant Staphylococcus aureus ATCC43300 assessed as inhibition of bacterial growth incubated for 20 hrs by CLSI protocol based microdilution method; format: functional
Pseudomonas aeruginosa [2] = experiment: Inhibition of biofilm formation in Pseudomonas aeruginosa PAO1 at 32 ug/ml incubated for 20 hrs by crystal violet staining based analysis; format: functional; settings: dose 32.0 µg/ml
Pseudomonas aeruginosa [3] = experiment: Antibacterial activity against Pseudomonas aeruginosa PAO1 assessed as inhibition of bacterial growth at 256 ug/ml measured after 25 hrs by absorbance based assay; format: functional, organism-based; settings: dose 256.0 µg/ml
[4] = Inhibition of quorum sensing system in Pseudomonas aeruginosa PAO1 assessed as inhibition of pyocyanin production at 102.4 ug/ml incubated for 18 hrs by absorbance based assay; settings: dose 102.4 µg/ml
Bacillus subtilis = experiment: Antibacterial activity against penicillin-susceptible Bacillus subtilis ATCC9372 assessed as inhibition of bacterial growth incubated for 20 hrs by CLSI protocol based microdilution method; format: functional
Bacillus pumilus = experiment: Antibacterial activity against penicillin-susceptible Bacillus pumilus CMCC63202 assessed as inhibition of bacterial growth incubated for 20 hrs by CLSI protocol based microdilution method; format: functional
Staphylococcus aureus [5] = experiment: Antibacterial activity against erthromycin-susceptible Staphylococcus aureus ATCC25923 assessed as inhibition of bacterial growth incubated for 20 hrs by CLSI protocol based microdilution method; format: functional
[6] = Inhibition of quorum sensing system in Pseudomonas aeruginosa PAO1 assessed as inhibition of protease activity at 102.4 ug/ml incubated for 24 hrs by absorbance based assay; settings: dose 102.4 µg/ml
Pseudomonas aeruginosa [7] = experiment: Antibacterial activity against Pseudomonas aeruginosa 27853 assessed as inhibition of bacterial growth at 256 ug/ml measured after 25 hrs by absorbance based assay; format: functional, organism-based; settings: dose 256.0 µg/ml
Pseudomonas aeruginosa [8] = experiment: Antibacterial activity against penicillin-susceptible Pseudomonas aeruginosa ATCC27853 assessed as inhibition of bacterial growth incubated for 20 hrs by CLSI protocol based microdilution method; format: functional
[9] = Inhibition of quorum sensing system in Pseudomonas aeruginosa PAO1 assessed as inhibition of rhamnolipid production at 102.4 ug/ml incubated for 24 hrs by absorbance based assay; settings: dose 102.4 µg/ml
Escherichia coli = experiment: Antibacterial activity against penicillin-susceptible Escherichia coli ATCC25922 assessed as inhibition of bacterial growth incubated for 20 hrs by CLSI protocol based microdilution method; format: functional
Pseudomonas aeruginosa [10] = experiment: Antibacterial activity against wild type Pseudomonas aeruginosa […] CGMCC1.12483 assessed as inhibition of bacterial growth incubated for 20 hrs by CLSI protocol based microdilution method; format: functional

| SMILES | MIC (Staphylococcus aureus [1]) | inhibition (Pseudomonas aeruginosa [2]) | Activity (Pseudomonas aeruginosa [3]) | inhibition [4] | MIC (Bacillus subtilis) | MIC (Bacillus pumilus) | MIC (Staphylococcus aureus [5]) | inhibition [6] | Activity (Pseudomonas aeruginosa [7]) | MIC (Pseudomonas aeruginosa [8]) | inhibition [9] | MIC (Escherichia coli) | MIC (Pseudomonas aeruginosa [10]) |
| --- | --- | --- | --- | --- | --- | --- | --- | --- | --- | --- | --- | --- | --- |
| C=C1OC(=O)C(CNC(=O)CCCCCCCCCC)=C1c1ccc(F)cc1 | > 512 µg/mL | inactive | inactive | 44.7% | > 512 µg/mL | > 512 µg/mL | > 512 µg/mL | Active | inactive | > 512 µg/mL | Active | > 512 µg/mL | > 512 µg/mL |
| C=C1C(c2ccc(F)cc2)=C(CNC(=O)c2ccc(C)cc2)C(=O)N1CCCC | > 512 µg/mL |  |  |  | > 512 µg/mL | > 512 µg/mL | > 512 µg/mL |  |  | > 512 µg/mL |  | > 512 µg/mL | > 512 µg/mL |
| C=C1C(c2ccc(F)cc2)=C(CNC(=O)c2ccc(C)cc2)C(=O)N1CCCCC | > 512 µg/mL |  |  |  | > 512 µg/mL | 512 µg/mL (≈ 1260 µM) | > 512 µg/mL |  |  | > 512 µg/mL |  | > 512 µg/mL | 512 µg/mL (≈ 1260 µM) |
| C=C1OC(=O)C(CNC(=O)CCCCCCCC)=C1c1ccc(F)cc1 | > 512 µg/mL |  |  |  | > 512 µg/mL | > 512 µg/mL | > 512 µg/mL |  |  | > 512 µg/mL |  | > 512 µg/mL | > 512 µg/mL |
| C=C1OC(=O)C(CNC(=O)CCc2ccccc2)=C1c1ccc(F)cc1 | 16 µg/mL (≈ 45.5 µM) |  |  | inactive | 64 µg/mL (≈ 182 µM) | > 512 µg/mL | > 512 µg/mL |  |  | > 512 µg/mL |  | > 512 µg/mL | 512 µg/mL (≈ 1460 µM) |
| C=C1C(c2ccc(F)cc2)=C(CNC(=O)c2ccc(C)cc2)C(=O)N1C1CCCC1 | 512 µg/mL (≈ 1270 µM) |  |  |  | > 512 µg/mL | 512 µg/mL (≈ 1270 µM) | > 512 µg/mL |  |  | > 512 µg/mL |  | > 512 µg/mL | 512 µg/mL (≈ 1270 µM) |
| C=C1OC(=O)C(CNC(=O)c2ccccc2OC)=C1c1ccc(F)cc1 | > 512 µg/mL |  |  |  | > 512 µg/mL | > 512 µg/mL | > 512 µg/mL |  |  | > 512 µg/mL |  | > 512 µg/mL | > 512 µg/mL |
| C=C1C(c2ccc(F)cc2)=C(CNC(=O)c2ccc(C)cc2)C(=O)N1c1cccc(Cl)c1 | > 512 µg/mL |  |  |  | > 512 µg/mL | 512 µg/mL (≈ 1150 µM) | > 512 µg/mL |  |  | > 512 µg/mL |  | > 512 µg/mL | 512 µg/mL (≈ 1150 µM) |
| C=C1OC(=O)C(CNC(=O)CCCC)=C1c1ccc(F)cc1 | 32 µg/mL (≈ 105 µM) |  |  |  | 32 µg/mL (≈ 105 µM) | 16 µg/mL (≈ 52.7 µM) | 4 µg/mL (≈ 13.2 µM) |  |  | > 512 µg/mL |  | > 512 µg/mL | > 512 µg/mL |
| C=C1OC(=O)C(CNC(=O)c2ccc(C)cc2)=C1c1ccc(Cl)cc1 | > 512 µg/mL |  |  |  | > 512 µg/mL | > 512 µg/mL | > 512 µg/mL |  |  | > 512 µg/mL |  | > 512 µg/mL | > 512 µg/mL |
| C=C1OC(=O)C(CNC(=O)c2ccc(C)cc2)=C1c1cccc(F)c1 | > 512 µg/mL |  |  |  | > 512 µg/mL | > 512 µg/mL | > 512 µg/mL |  |  | > 512 µg/mL |  | > 512 µg/mL | > 512 µg/mL |
| C=C1OC(=O)C(CNC(=O)c2ccc(C)cc2)=C1c1ccc(Br)cc1 | > 512 µg/mL |  |  |  | > 512 µg/mL | > 512 µg/mL | > 512 µg/mL |  |  | > 512 µg/mL |  | > 512 µg/mL | > 512 µg/mL |
| C=C1OC(=O)C(CNC(=O)c2ccc(C)cc2)=C1c1cccc(Br)c1 | > 512 µg/mL |  |  |  | > 512 µg/mL | > 512 µg/mL | > 512 µg/mL |  |  | > 512 µg/mL |  | > 512 µg/mL | > 512 µg/mL |
| C=C1C(c2ccc(F)cc2)=C(CNC(=O)c2ccc(C)cc2)C(=O)N1c1ccccc1Cl | > 512 µg/mL |  |  |  | > 512 µg/mL | 512 µg/mL (≈ 1150 µM) | > 512 µg/mL |  |  | > 512 µg/mL |  | > 512 µg/mL | 512 µg/mL (≈ 1150 µM) |
| C=C1OC(=O)C(CNC(=O)c2ccc(C)cc2)=C1c1cccc(Cl)c1 | > 512 µg/mL | inactive | inactive | Active | > 512 µg/mL | > 512 µg/mL | > 512 µg/mL | Active | inactive | > 512 µg/mL | Active | > 512 µg/mL | > 512 µg/mL |
| C=C1OC(=O)C(CNC(=O)c2ccc(C)cc2)=C1c1ccccc1Cl | > 512 µg/mL |  |  |  | > 512 µg/mL | > 512 µg/mL | > 512 µg/mL |  |  | > 512 µg/mL |  | > 512 µg/mL | > 512 µg/mL |
| C=C1OC(=O)C(CNC(=O)c2ccc(C)cc2)=C1c1ccccc1F | > 512 µg/mL |  |  |  | > 512 µg/mL | > 512 µg/mL | > 512 µg/mL |  |  | > 512 µg/mL |  | > 512 µg/mL | > 512 µg/mL |
